Reference: patent publication US20230255904A1, “PHARMACEUTICAL COMPOSITION FOR PREVENTING OR TREATING CANCER COMPRISING NAPHTHOQUINONE-BASED COMPOUND AND IMMUNE CHECKPOINT INHIBITOR AS ACTIVE INGREDIENTS” (NADIANBIO LTD., priority 2020, published 2023)

Experiments:
MC38 [1] = assay: Survival rate analysis, animal model for colorectal cancer I (MC38); type: in vivo, C57BL/6 mice
Method: After subcutaneous implantation of the cancer cell line, the survival rate was measured by recording the number of mice that died in each group every day. The measurement of survival rate was performed until the death of all mice in all groups or the death of all mice in the control. The average survival day was calculated by obtaining a survival curve using the survival rate.
After sole administration or co-administration of respective drugs was performed according to the administration schedules listed in Tables 36 and 37 below, the survival rates and the average survival days were calculated according to the survival rate analysis method described in Example 3.1, and the results thereof are respectively shown in Tables 36 and 37 and FIGS. 33 and 34.

RENCA = assay: Tumor growth inhibition, animal model for renal cancer (RENCA); type: in vivo, BALB/c mice
Method: (§1) All mice used in the experiments were raised in a sterile animal room with constant temperature (22° C. to 26° C.) and constant humidity (55% to 60%), acclimatized for 1 week while sufficiently supplying typical solid feed (Samtako Inc., Korea) and water, and then used. All experiments were conducted after obtaining approval from the Institutional Animal Care and Use Committee in accordance with the laboratory animal care and ethics regulations of the Institutional Animal Care and Use Committee of Wonkwang University.
(§2) 7-week-old BALB/c or C57BL/6 mice were used, and subcutaneously inoculated using a 1-mL insulin syringe within 30 minutes after mixing the mouse cancer cells with 0.2 mL of PBS.
(§3) After the cancer cell line was subcutaneously implanted, the administration of drugs was started when the size of the cancer reached 50 to 100 mm^3. The volumes (mm^3) of the tumors, which were generated after the inoculation, were measured at intervals of 3 days using a caliper, calculation was performed using the formula of […], and then the results thereof were compared.
(§4) In addition, sole administration or co-administration of respective drugs was performed according to the administration schedules listed in Tables 4 to 34 below, the tumor volumes were then measured according to the tumor proliferation assessment method described in Example 1.1, the tumor growth inhibition rates (TGI (O)=(Vc−Vt)/Vc×100(%); Vc: tumor volume of control, Vt tumor volume of experimental group) were calculated based the tumor volumes, and the results thereof are shown in the respective tables and FIGS. 1 to 31.

CT26 = assay: Tumor growth inhibition, animal model for colorectal cancer II (CT26); type: in vivo,  mice; details: Dunnione 40 mg/kg oral every day from 6th day, 4 times
Method: as §1, §2
as §3, with “compared. […]” for “compared.”

MC38 [2] = assay: Tumor growth inhibition, animal model for colorectal cancer I (MC38); type: in vivo, C57BL/6 mice
Method: as §1, §2, §3, §4

KLN205 = assay: Tumor growth inhibition, animal model for lung cancer I (KLN205); type: in vivo, DBA/2 mice; details: Experimental Example 30, dunnione 40 mg/kg oral daily from 5th day, anti-PD-1 antibody 100 μg/head, carboplatin 25 mg/kg + paclitaxel 10 mg/kg intraperitoneal 2 times a week, 4 times in total
Method: as §1, §2
as §3, with “compared. […]” for “compared.”

[3] = test system: spontaneous non-small cell lung cancer (Kras^LSL-G12D/+; Trp53^flox/flox mice); assay: Tumor proliferation in genetically engineered mouse models for spontaneous non-small cell lung cancer (Micro-CT); type: in vivo; details: compared to before the drug administration, Micro-CT imaging; dunnione 40 mg/kg, carboplatin 25 mg/kg, paclitaxel 10 mg/kg, anti-PD-1 antibody 200 μg/head
Source text: Models for spontaneous non-small cell lung cancer were induced by constructing conditional mutant mice (Kras^LSL-G12D/+; Trp53^flox/flox mice) having Ras activation and p53 variation through crossbreeding of conditional K-Ras activation variation-genetically engineered mice and conditional p53 variation-genetically engineered mice, and then performing intratracheal instillation of adenoviruses (Ad5-CMV-Cre; 2.5×10^7 PFU/infectious units), into which Cre genes were introduced, into the lung. […]
After sole administration or co-administration of respective drugs was performed according to the administration schedule listed in Table 38 below and FIG. 35, the tumor growth rate for each group compared to before the drug administration was measured at the 6th week through Micro-CT imaging, and the results thereof were summarized in Table 39.

LL/2 = assay: Tumor growth inhibition, animal model for lung cancer II (LL/2); type: in vivo, C57BL/6 mice; details: Experimental Example 31; LL/2 lung cancer II; dunnione 40 mg/kg oral daily from 6th day; anti-PD-1 antibody 100 μg/head, carboplatin 25 mg/kg + pemetrexed 100 mg/kg intraperitoneal 2 times a week, 3 times in total
Method: as §1, §2
as §3, with “compared. […]” for “compared.”

EMT6 = assay: Tumor growth inhibition, animal model for breast cancer II (EMT6); type: in vivo, BALB/c mice; details: Experimental Example 14, Dunnione 40 mg/kg oral every day from 11th day, Anti-CTLA4 antibody 200 μg/head i.p. 2 times a week from 11th day, Lapatinib 100 mg/kg oral every day from 11th day
Method: as §1, §2
as §3, with “compared. […]” for “compared.”

[4] = Experimental Example 34, dunnione 40 mg/kg oral daily from 6th day, anti-PD-1 antibody 200 μg/head intraperitoneal 2 times a week from 6th to 62nd day, 5-fluorouracil 50 mg/kg intraperitoneal once on 6th day

## CC1OC2=C(C(=O)C(=O)c3ccccc32)C1(C)C (stereo not shown) [Dunnione, 2,3,3-trimethyl-2H-benzo[g][1]benzofuran-4,5-dione]
MC38 [1]; Experimental Example 33, dunnione 40 mg/kg oral daily from 4th day, anti-PD-1 antibody 100 μg/head + anti-CTLA4 antibody 100 μg/head intraperitoneal, oxaliplatin 6 mg/kg + 5-fluorouracil 50 mg/kg intraperitoneal at intervals of 15 days, 3 times
  Survival rate (%) on 38th day after cancer implantation: 10%
MC38 [1]; [4]
  Average survival day: 28 days
  Total survival period: 22 to 45
RENCA; Experimental Example 15, Dunnione 40 mg/kg oral every day from 7th day, Anti-CTLA4 antibody 200 μg/head i.p. at intervals of 3 days from 7th day, 7 times, Everolimus 250 μg/kg oral every day from 7th day
  TGI (%): 7.8%
RENCA; Experimental Example 16, Dunnione 40 mg/kg oral every day from 7th day, Sorafenib 10 mg/kg oral every day from 7th day
  TGI (%): 14.5%
RENCA; Experimental Example 17, Dunnione 40 mg/kg oral every day from 7th day, Anti-CTLA4 antibody 200 μg/head i.p. at intervals of 3 days from 7th day, 3 times, Sorafenib 10 mg/kg oral every day from 7th day
  TGI (%): 14.5%
RENCA; Experimental Example 18, Dunnione 40 mg/kg oral every day from 7th day, Anti-PD-1 antibody 100 μg/head i.p. 2 times a week from 7th day, 5 times, Everolimus 0.1 mg/kg oral every day from 7th day
  TGI (%): 5.2%
RENCA; Experimental Example 19, Dunnione 40 mg/kg oral every day from 7th day, Anti-CTLA4 antibody 200 μg/head i.p. 2 times a week from 7th day, 5 times, Sorafenib 10 mg/kg oral every day from 7th day
  TGI (%): 44.6%
RENCA; Experimental Example 20, Dunnione 40 mg/kg oral every day from 10th day, Anti-CTLA4 antibody 200 μg/head i.p. 2 times a week from 10th day, 5 times, Vistusertib 10 mg/kg oral every day from 10th day
  TGI (%): 33.2%
CT26; Experimental Example 8, Irinotecan 4.626 mg/kg + Leucovorin 10.28 mg/kg + 5-Fluorouracil 61.68 mg/kg i.p. 2 times a week from 6th day
  TGI (%): 21.2%
CT26; Experimental Example 9, Anti-PD-1 antibody 200 μg/head i.p. 2 times a week from 6th day
  TGI (%): 25.5%
MC38 [2]; Experimental Example 1, Dunnione 40 mg/kg oral every day from 5th day, Anti-PD-1 antibody 200 μg/head i.p. at intervals of 3 days from 5th day, 4 times, Oxaliplatin 6 mg/kg + 5-Fluorouracil 50 mg/kg i.p. once on 5th day
  TGI (%): 8.1%
MC38 [2]; Experimental Example 2, Dunnione 40 mg/kg oral every day from 5th day, Anti-CTLA4 antibody 200 μg/head i.p. at intervals of 3 days from 5th day, 4 times, Oxaliplatin 6 mg/kg + 5-Fluorouracil 50 mg/kg i.p. once on 5th day
  TGI (%): 7.6%
MC38 [2]; Experimental Example 3, Dunnione 40 mg/kg oral every day from 4th day, Anti-PD-1 antibody 100 ug/head + Anti-CTLA4 antibody 100 μg/head i.p. at intervals of 3 days from 4th day, 4 times, Oxaliplatin 6 mg/kg + 5-Fluorouracil 50 mg/kg i.p. once on 4th day
  TGI (%): 5.3%
MC38 [2]; Experimental Example 4, Dunnione 40 mg/kg oral every day from 7th day, Anti-LAG3 antibody 200 μg/head i.p. on 7th, 10th, 14th, 17th days, Oxaliplatin 6 mg/kg i.p. on 7th and 14th days
  TGI (%): 13.1%
MC38 [2]; Experimental Example 5, Dunnione 40 mg/kg oral every day from day of cancer cell implantation, Anti-PD-1 antibody 200 μg/head i.p. at intervals of 3 days from 7th day, 4 times
  TGI (%): 28.5%
MC38 [2]; Experimental Example 6, Dunnione 40 mg/kg oral every day from 7th day, Anti-PD-1 antibody 100 μg/head i.p. 2 times a week from 7th day, 4 times, Regorafenib 10 mg/kg oral every day from 7th day
  TGI (%): 36.8%
MC38 [2]; Experimental Example 7, Dunnione 40 mg/kg oral every day from 6th day, Anti-PD-1 antibody 100 μg/head i.p. 2 times a week from 6th day, 2 times, Abemaciclib 75 mg/kg oral every day from 6th day
  TGI (%): 9.9%
KLN205
  TGI (%): 10.2%
[3]
  Tumor growth rate (fold) at 6th week: 34.6 ± 54 fold
LL/2
  TGI (%): 23.5%
EMT6
  TGI (%): 9.7%
